Values joined by “and” are separate entries in the source; they are usually repeats but may differ in a detail not shown here. Identical values can stand only once.
Experiments:
PBMCs (T cells) = assay: 10-day IFN-γ ELIspot for low-frequency T cells; assay type: cell-based, human; settings: for Healthy Donor Proportion (%) responding: healthy donors; for Healthy Donor Proportion (%) responding / Patients Proportion (%) responding: 10 μg/mL polypeptide, positive = p<0.05 vs no antigen and >1:100,000; for Patients Proportion (%) responding: breast and ovarian cancer patients
Description: An equal volume of Hank's balanced salt solution (HBSS) was added to the blood samples. Twenty-five mL of diluted blood was overlaid onto 15 mL of Ficoll-Paque in a 50 mL conical test tube centrifuged at 374×g for 35 minutes at room temperature. Following centrifugation, the buffy coats were centrifuged (12 minutes, 216×g). The cell pellets were washed and resuspended in freezing media (RPMI supplemented with 12.5% HSA, penicillin, streptomycin, and 2 mM glutamine). Cells were adjusted to 20×10^6/mL cells, and an equal volume of cold 12.5% HSA RPMI containing 25% DMSO (Sigma D2650) was added. Cells were aliquoted and transferred to a −80° C. freezer. After overnight incubation, the vials were transferred to liquid nitrogen.
For in vitro assay, each vial of cells was thawed, and the contents were transferred to a test tube containing 12 mL of cell culture media. Following centrifugation, the cells were resuspended in 2-3 mL of medium, and viability was determined by dye exclusion. The mean number of PBMC purified from the blood of donors was 1.6±0.07×10^6 cells/mL of whole blood for healthy donors and 1.0±0.07×10^6/mL for cancer patients (p<0.0001). This cryopreservation and thawing procedure was optimized for recovery of antigen-specific T cell function (Disis et al., J. Immunol. Methods, 308(1-2):13-8 (2006)).
A 10-day ELIspot for detecting low-frequency T cells was used to determine reactivity to the FRα-derived polypeptides (Table 1). ELIspots were carried out in groups of two donors (two healthy donors, one healthy donor/one cancer patient, or two cancer patients). The assay was carried out as described elsewhere (Knutson et al., J. Clin. Invest., 107:477-84 (2001)). On day 1, 2.5×10^5 PBMCs/well were plated into 96-well plates in 3-well replicates in 200 μL of RPMI-1640 containing L-glutamine, penicillin, streptomycin, and 10% fetal calf serum (T-cell medium) in the presence or absence of 10 μg/mL polypeptide antigen. The cells were incubated at 37° C. and IL-2 (Zeptometric, Inc., Buffalo, N.Y.) was added to 10 U/mL on day 5. On day 8, 2.5×10^5/well irradiated autologous PBMCs and 10 μg/mL antigens were added. On day 9, the cells were transferred to an anti-IFN-γ-coated nitrocellulose (NC)-plate (Millipore Corporation, Bedford, Mass.). The NC-plate was incubated (37° C.) for a further 20-24 hours followed by washing three times using PBS containing 0.05% Tween-20. The plate was then incubated for 2.5 hours at RT in PBS with 5 μg/mL biotinylated anti-IFN-γ Ab, washed in PBS, and further incubated with 100 μL/well avidin-horseradish peroxidase (HRP, Vector Laboratories, Burlingame, Calif.)) for 2 hours at room temperature. After three washes in PBS, the plate was incubated with 100 μL/well HRP-colorimetric substrate (Vector Laboratories) for 20-30 minutes, rinsed with cool tap water, and allowed to dry completely. The nitrocellulose plates were read on an AID ELIspot reader (Cell Technology, Inc., Columbia, Md.; reader software v.3.1.1.). […] A 17-amino acid polypeptide (KISQAVHAAHAEINEAG; SEQ ID NO: 1) derived from chicken egg ovalbumin, produced in the same fashion as the FRα polypeptides, was used as a control polypeptide. […] The anti-IFN-γ and biotinylated anti-IFN-γ antibody pair were obtained from Mabtech (Sweden).
The T cell magnitude for each donor was summed across all 14 polypeptides which, along with the response multiplicity, was compared with age using regression. Student's t test was used for means unless the data were not normally distributed, in which case Mann-Whitney test was used. Fisher's Exact Test was used for comparing proportions. A proportion was considered elevated, relative to other polypeptides, if that proportion was statistically elevated relative to the mean proportion, 8.7%, which is the ratio of the total number of significant (p<0.05, two-tailed t test) polypeptide-specific responses over the total number of donors. […]

[1] = system: PBMC (CD4 and CD8 T cells); assay: IFN-γ cytokine flow cytometry; assay type: cell-based, human; settings: PBMC from three patients that had responded to FR56
Description: PBMC were cultured with peptide (10 μg/mL) for seven days. IL-2 (20 U/mL) were added on Day 3. After seven days, the cells were distributed into a 96-well plate with fresh irradiated autologous PBMC. Either medium alone or medium supplemented with PHA-L (20 μg/well) or recall polypeptide (10 μg/well) was added to the appropriate wells for 29 hours. Golgi-Stop was added for the last five hours followed by washing in PBS-0.5% BSA. The cells were resuspended in the same buffer containing anti-CD4-FITC and anti-CD8-APC for 30 minutes, followed by washes and fixing. The cells were permeabilized alone or with unconjugated anti-human IFN-γ (adsorption control) followed by washing and incubation with anti-human anti-IFN-γ-APC for 30 minutes. The cells were washed, fixed, and analyzed using a BD Biosciences FACscan flow cytometer and CellQuest Pro Software (version 4.0.2., BD Biosciences). A response to antigen was considered as positive if there was at least a 50% increase in IFN-γ[…] cells, and it was blocked by the adsorption control.

[2] = system: antibodies in diluted serums; assay type: binding, human

Substance | Healthy Donor Proportion (%) responding (PBMCs (T cells)) [%] | Patients Proportion (%) responding (PBMCs (T cells)) [%] | also measured
RTELLNVCMNAKHHKEK (listed as Homo sapiens) [FR30] | 6 |  | 
VDQSWRKERVLNVPL (listed as Homo sapiens) [FR120] | 11 | 13 | 
VARFYAAAMSGAGPWA (listed as Homo sapiens) [FR225] | 22 | 7 | 
ACKRHFIQDTCLYECS (listed as Homo sapiens) [FR95] | 6 | 23 | 
LGPWIQQVDQSWRKERV (listed as Homo sapiens) [FR113] | 0 |  | 
MTTQLLLLLVWVAVVGEAQ (listed as Homo sapiens) [FR5] | 6 | 17 | 
WHKGWNWTSGFNKCAVGA (listed as Homo sapiens) [FR156] | 17 | 23 | 
CKSNWHKGWNWTSGFN (listed as Homo sapiens) [FR152] | 6 | 23 | 
QCRPWRKNACCSTNT (listed as Homo sapiens) [FR56] | 6 |  | ELIspot response (PBMCs (T cells); healthy donor 15, no antigen control 5±1): 3±1 spots/well; recognition by ovarian vs breast cancer patients (PBMCs (T cells); p=0.05): recognized more often; ELIspot response (PBMCs (T cells); patient 37, mean±s.e.m., n=3, no antigen 26±2): 183±17 spots/well; patients with CD4 T cell response [1]: All three; patients with CD8 T cell response [1]: two of three
DCEQWWEDCRTSYTCK (listed as Homo sapiens) [FR138] | 22 | 30 | 
KDVSYLYRFNWNHCGEMA (listed as Homo sapiens) [FR76] | 11 | 13 | 
PWAAWPFLLSLALMLLWL (listed as Homo sapiens) [FR238] |  | 23 | 
tetanus toxin [TT] |  |  | Antibody responses [2]: 30 ± 4 µg/mL and 27 ± 4 µg/mL
KISQAVHAAHAEINEAG (listed as Gallus gallus) [ovalbumin-derived control polypeptide, reference compound] |  |  | responses in patients vs healthy donors (PBMCs (T cells); comparison of the two populations (FIG. 3A)): not different
RTSYTCKSNWHKGWNWT (listed as Homo sapiens) [FR147] | 22 | 40 | 
LLVWVAVVGEAQTRI (listed as Homo sapiens) [FR12] | 6 | 7 | 

— patent US10948480B2, “Immunity to folate receptors” (priority 2006, dated 2021)
